These results are taken from patent publication US8378104B2 (OSI Pharmaceuticals, LLC, priority 2010, dated 2013).

Counter-ions that a name gives are not always drawn. Like-named read-outs stand apart in the source and are kept apart here.

The target of one assay is T1, TAK1-TAB1 fusion protein (Homo sapiens, UniProt O43318).
T1 construct: purchased Carna
T1 sequence (O43318 with tags, fused parts or gaps limits assumed): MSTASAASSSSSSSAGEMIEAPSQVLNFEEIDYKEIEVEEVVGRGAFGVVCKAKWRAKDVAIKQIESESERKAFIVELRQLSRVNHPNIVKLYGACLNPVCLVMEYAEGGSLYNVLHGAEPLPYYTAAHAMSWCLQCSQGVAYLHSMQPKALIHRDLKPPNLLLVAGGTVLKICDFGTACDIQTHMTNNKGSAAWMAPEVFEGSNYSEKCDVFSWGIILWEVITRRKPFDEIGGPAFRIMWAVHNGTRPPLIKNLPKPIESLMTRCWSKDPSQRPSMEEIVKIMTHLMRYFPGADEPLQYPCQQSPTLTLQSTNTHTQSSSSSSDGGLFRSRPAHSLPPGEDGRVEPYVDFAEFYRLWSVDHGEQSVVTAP
Nature of the assay: TAK1 biochemical assay (AlphaScreen, GST-MAP2K7 substrate). (In general: Bead proximity is the source of the signal in Alpha formats.)

A further assay deals with pJNK in HCT-116 cells. The assay is described as follows: Phospho-JNK (Thr183/Tyr185) Meso Scale ELISA assay, TNFα-stimulated HCT-116 cells. The following applies: Homo sapiens, read-out: mean HCT-116 pJNK ELISA IC50 (Col. B). The assay is classed as cell-based. The procedure, abridged:
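HCT-116 cells in 1% FCS medium were pretreated with compound for 4 hrs at 37° C, then stimulated with TNFα at 10 ng/mL final for 10 minutes. Lysates were taken in ice-cold lysis buffer with phosphatase and protease inhibitors, and phospho-JNK (Thr183/Tyr185) was measured by Meso Scale ELISA.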
Background: In an ELISA, binding on a coated surface is turned into a signal by an enzyme label.

A further assay deals with p-p38 in HCT-116 cells. The assay is described as follows: Phospho-p38 Meso Scale ELISA assay, TNFα-stimulated HCT-116 cells. The assay is classed as cell-based. The following applies: Homo sapiens, read-out: mean HCT-116 p-p38 ELISA IC50 (Col. C). The gist of the method: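 HCT-116 cells in 1% FCS medium for 2 h, then compound for 4 h at 37° C, then TNFα at 10 ng/mL final for 10 min. Lysates captured overnight at 4° C and phospho-p38 quantified by Meso Scale electrochemiluminescence ELISA.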

The mark [1] stands for this setting: TAK1-TAB1 fusion protein, GST-MAP2K7 substrate, read-out: mean TAK1 IC50 (Col. A).

For `Nc1ncc(-c2cnn(C3CCNCC3)c2)c2cc(-c3ccc4[nH][nH]c(=O)c4c3)oc12` [Example 55, 5-{7-amino-4-[1-(piperidin-4-yl)-1H-pyrazol-4-yl]furo[2,3-c]pyridin-2-yl}-1,2-dihydro-3H-indazol-3-one trifluoroacetic acid salt], the IC50 (usually the midpoint of a concentration-inhibition curve) at TAK1-TAB1 fusion protein (setting [1]) was less than 100 nM; in the assay with pJNK in HCT-116 cells it was greater than 10000 nM; with p-p38 in HCT-116 cells it was greater than 10000 nM.
With `CS(=O)(=O)CCN1CCC(n2cc(-c3cnc(N)c4oc(-c5cccc6cnccc56)cc34)cn2)CC1` [Example 82, 2-(isoquinolin-5-yl)-4-(1-{1-[2-(methylsulfonyl)ethyl]piperidin-4-yl}-1H-pyrazol-4-yl)furo[2,3-c]pyridin-7-amine], the IC50 on TAK1-TAB1 fusion protein (setting [1]), with pJNK in HCT-116 cells and in the assay with p-p38 in HCT-116 cells was 100 to 1000 nM throughout.
On to `Nc1ncc(-c2cnn([C@@H]3C[C@@H](O)[C@@H](O)C3)c2)c2cc(-c3csc4cnccc34)oc12` [Example 311, rel-(1R,2S,4S)-4-[4-(7-amino-2-thieno[2,3-c]pyridin-3-yl-furo[2,3-c]pyridin-4-yl)-pyrazol-1-yl]-cyclopentane-1,2-diol], for which the IC50 on TAK1-TAB1 fusion protein (setting [1]) was less than 100 nM; with pJNK in HCT-116 cells it was 100 to 1000 nM; with p-p38 in HCT-116 cells it was 100 to 1000 nM.
For the compound `CC(=O)N1CCC(n2cc(-c3cnc(N)c4oc(-c5ccc(O)c(F)c5)cc34)cn2)CC1` [Example 123, 1-(4-{4-[7-amino-2-(3-fluoro-4-hydroxyphenyl)furo[2,3-c]pyridin-4-yl]-1H-pyrazol-1-yl}piperidin-1-yl)ethanone], the half-inhibitory concentration (IC50) was 100 to 1000 nM at TAK1-TAB1 fusion protein (setting [1]), 1000 to 10000 nM in the assay on pJNK in HCT-116 cells and 1000 to 10000 nM in the assay on p-p38 in HCT-116 cells.
In the case of `CC(=O)N1CCC(n2cc(-c3cnc(N)c4oc(-c5ccc6c(c5)CCO6)cc34)cn2)CC1` [Example 108, 1-(4-{4-[7-amino-2-(2,3-dihydro-1-benzofuran-5-yl)furo[2,3-c]pyridin-4-yl]-1H-pyrazol-1-yl}piperidin-1-yl)ethanone], the IC50 at TAK1-TAB1 fusion protein (setting [1]) is 100 to 1000 nM; with pJNK in HCT-116 cells, 100 to 1000 nM; in the assay on p-p38 in HCT-116 cells, less than 100 nM.
`CC(=O)N1CCC(n2cc(-c3cnc(N)c4oc(-c5ccc6scnc6c5)cc34)cn2)CC1` [Example 107, 1-(4-{4-[7-amino-2-(1,3-benzothiazol-5-yl)furo[2,3-c]pyridin-4-yl]-1H-pyrazol-1-yl}piperidin-1-yl)ethanone]: the IC50 on TAK1-TAB1 fusion protein (setting [1]), in the assay with pJNK in HCT-116 cells and with p-p38 in HCT-116 cells was 100 to 1000 nM throughout.
Consider `Nc1ncc(-c2cnn([C@H]3CC[C@H](O)CC3)c2)c2cc(-c3cncc4cnsc34)oc12` [Example 267, trans-4-{4-[7-amino-2-([1,2]thiazolo[4,5-c]pyridin-7-yl)furo[2,3-c]pyridin-4-yl]-1H-pyrazol-1-yl}cyclohexanol Diformate Salt], for which the figures for the IC50 at TAK1-TAB1 fusion protein (setting [1]), in the assay on pJNK in HCT-116 cells and in the assay with p-p38 in HCT-116 cells were 100 to 1000 nM, less than 100 nM and 100 to 1000 nM, respectively.
Take `CC(=O)N1CCC(n2cc(-c3cnc(N)c4oc(-c5cccc(OCC#N)c5)cc34)cn2)CC1` [Example 205, (3-{4-[1-(1-acetylpiperidin-4-yl)-1H-pyrazol-4-yl]-7-aminofuro[2,3-c]pyridin-2-yl}phenoxy)acetonitrile]: the IC50 at TAK1-TAB1 fusion protein (setting [1]), in the assay on pJNK in HCT-116 cells and in the assay with p-p38 in HCT-116 cells was 100 to 1000 nM each time.
`Nc1ncc(-c2cnn(C3CCOCC3)c2)c2cc(-c3cccc4cnccc34)oc12` [Example 74, 2-(isoquinolin-5-yl)-4-[1-(tetrahydro-2H-pyran-4-yl)-1H-pyrazol-4-yl]furo[2,3-c]pyridin-7-amine]: the IC50 at TAK1-TAB1 fusion protein (setting [1]) fell in the range of 100 to 1000 nM; in the assay with pJNK in HCT-116 cells it was 100 to 1000 nM; in the assay with p-p38 in HCT-116 cells it was 1000 to 10000 nM.
In the case of `Nc1ncc(-c2cnn(C3CCN(C(=O)C4CC4)CC3)c2)c2cc(-c3cccc4cnccc34)oc12` [Example 52, (4-{4-[7-amino-2-(isoquinolin-5-yl)furo[2,3-c]pyridin-4-yl]-1H-pyrazol-1-yl}piperidin-1-yl)(cyclopropyl)methanone], the IC50 on TAK1-TAB1 fusion protein (setting [1]), with pJNK in HCT-116 cells and in the assay on p-p38 in HCT-116 cells was 100 to 1000 nM each time.
Take `CC(=O)N1CCC(n2cc(-c3cnc(N)c4oc(-c5cnn(Cc6cccnc6)c5)cc34)cn2)CC1` [Example 148, 1-[4-(4-{7-amino-2-[1-(pyridin-3-ylmethyl)-1H-pyrazol-4-yl]furo[2,3-c]pyridin-4-yl}-1H-pyrazol-1-yl)piperidin-1-yl]ethanone]: the IC50 at TAK1-TAB1 fusion protein (setting [1]) is 1000 to 10000 nM; with pJNK in HCT-116 cells, greater than 10000 nM; in the assay on p-p38 in HCT-116 cells it was greater than 10000 nM.
Consider `CS(=O)(=O)N1CCC(n2cc(-c3cnc(N)c4oc(-c5cccc6cnccc56)cc34)cn2)CC1` [Example 80, 2-(isoquinolin-5-yl)-4-{1-[1-(methylsulfonyl)piperidin-4-yl]-1H-pyrazol-4-yl}furo[2,3-c]pyridin-7-amine], for which the IC50 at TAK1-TAB1 fusion protein (setting [1]) is 100 to 1000 nM; with pJNK in HCT-116 cells it was less than 100 nM; in the assay with p-p38 in HCT-116 cells it was 100 to 1000 nM.
For the compound `CC(C)N1CCC(n2cc(-c3cnc(N)c4oc(-c5cccc6cnccc56)cc34)cn2)CC1` [Example 79, 2-(isoquinolin-5-yl)-4-{1-[1-(propan-2-yl)piperidin-4-yl]-1H-pyrazol-4-yl]furo[2,3-c]pyridin-7-amine], the IC50 on TAK1-TAB1 fusion protein (setting [1]), in the assay on pJNK in HCT-116 cells and in the assay on p-p38 in HCT-116 cells was 100 to 1000 nM each time.
Take `Nc1ncc(-c2cnn([C@H]3CC[C@H](O)CC3)c2)c2cc(-c3csc4cnc(F)cc34)oc12` [Example 249, trans-4-{4-[7-amino-2-(5-fluorothieno[2,3-c]pyridin-3-yl)furo[2,3-c]pyridin-4-yl]-1H-pyrazol-1-yl}cyclohexanol]: the IC50 at TAK1-TAB1 fusion protein (setting [1]), in the assay with pJNK in HCT-116 cells and with p-p38 in HCT-116 cells was less than 100 nM each time.
In the case of `CSc1ccccc1-c1cc2c(-c3cnn(C4CCN(C(C)=O)CC4)c3)cnc(N)c2o1` [Example 216, 1-[4-(4-{7-amino-2-[2-(methylsulfanyl)phenyl]furo[2,3-c]pyridin-4-yl}-1H-pyrazol-1-yl)piperidin-1-yl]ethanone], the half-inhibitory concentration (IC50) on TAK1-TAB1 fusion protein (setting [1]), in the assay on pJNK in HCT-116 cells and with p-p38 in HCT-116 cells was 100 to 1000 nM each time.
Regarding `Nc1ncc(-c2cnn(C3CCNCC3)c2)c2cc(-c3cccc4cnccc34)oc12` [Example 33, 2-(isoquinolin-5-yl)-4-[1-(piperidin-4-yl)-1H-pyrazol-4-yl]furo[2,3-c]pyridine-7-amine], the IC50 on TAK1-TAB1 fusion protein (setting [1]), in the assay with pJNK in HCT-116 cells and in the assay with p-p38 in HCT-116 cells was 100 to 1000 nM each time.
As to `CC(C)(C)OC(=O)N1CCC(n2cc(-c3cnc(N)c4oc(-c5cccc6cnsc56)cc34)cn2)CC1` [Example 302, 4-[4-(7-amino-2-benzo[d]isothiazol-7-yl-furo[2,3-c]pyridin-4-yl)-pyrazol-1-yl]-piperidine-1-carboxylic acid tert-butyl ester], the IC50 lay within 100 to 1000 nM on TAK1-TAB1 fusion protein (setting [1]), 100 to 1000 nM in the assay on pJNK in HCT-116 cells and 1000 to 10000 nM with p-p38 in HCT-116 cells.
Regarding `CC(=O)N1CCC(n2cc(-c3cnc(N)c4oc(-c5ccc6c(c5)CNC6=O)cc34)cn2)CC1` [Example 98, 5-{4-[1-(1-acetylpiperidin-4-yl)-1H-pyrazol-4-yl]-7-aminofuro[2,3-c]pyridin-2-yl}-2,3-dihydro-1H-isoindol-1-one], the IC50 at TAK1-TAB1 fusion protein (setting [1]), in the assay with pJNK in HCT-116 cells and with p-p38 in HCT-116 cells was greater than 10000 nM in each case.
`Cc1nn(C)cc1-c1cnc(N)c2oc(-c3csc4cnccc34)cc12` [Example 293, 4-(1,3-dimethyl-1H-pyrazol-4-yl)-2-thieno[2,3-c]pyridin-3-yl-furo[2,3-c]pyridin-7-ylamine]: the IC50 against TAK1-TAB1 fusion protein was 1000 to 10000 nM; in the assay on pJNK in HCT-116 cells, 100 to 1000 nM; in the assay with p-p38 in HCT-116 cells, 1000 to 10000 nM.
With `COCCN1CCC(n2cc(-c3cnc(N)c4oc(-c5cccc6cnccc56)cc34)cn2)CC1` [Example 68, 2-(isoquinolin-5-yl)-4-{1-[1-(2-methoxyethyl)piperidin-4-yl]-1H-pyrazol-4-yl}furo[2,3-c]pyridin-7-amine], the half-maximal inhibitory concentration (IC50) on TAK1-TAB1 fusion protein (setting [1]), with pJNK in HCT-116 cells and in the assay on p-p38 in HCT-116 cells was 100 to 1000 nM in each case.
With `Nc1ncc(-c2cnn(C3CCNCC3)c2)c2cc(-c3csc4cnccc34)oc12` [Example 322, 4-(1-piperidin-4-yl-1H-pyrazol-4-yl)-2-thieno[2,3-c]pyridin-3-yl-furo[2,3-c]pyridin-7-ylamine], the IC50 was less than 100 nM on TAK1-TAB1 fusion protein (setting [1]), 100 to 1000 nM in the assay with pJNK in HCT-116 cells and 100 to 1000 nM in the assay with p-p38 in HCT-116 cells.
Consider `Nc1ncc(-c2cnn(C[C@@H](O)CO)c2)c2cc(-c3csc4cnccc34)oc12` [Example 317, (R)-3-[4-(7-amino-2-thieno[2,3-c]pyridin-3-yl-furo[2,3-c]pyridin-4-yl)-pyrazol-1-yl]-propane-1,2-diol], for which the half-maximal inhibitory concentration (IC50) was less than 100 nM at TAK1-TAB1 fusion protein (setting [1]), 1000 to 10000 nM with pJNK in HCT-116 cells and 1000 to 10000 nM in the assay on p-p38 in HCT-116 cells.
On to `CC(=O)N1CCC(n2cc(-c3cnc(N)c4oc(-c5csc6cnccc56)cc34)cn2)CC1` [Example 189, 1-(4-{4-[7-amino-2-(thieno[2,3-c]pyridin-3-yl)furo[2,3-c]pyridin-4-yl]-1H-pyrazol-1-yl}piperidin-1-yl)ethanone], for which the IC50 is less than 100 nM on TAK1-TAB1 fusion protein (setting [1]), less than 100 nM with pJNK in HCT-116 cells and 100 to 1000 nM in the assay on p-p38 in HCT-116 cells.
